Reference: PubChem BioAssay AID1259407 (Chemical Carcinogenesis Research Information System (CCRIS), 2018)
The source made the active and inactive calls. How the calls were made is not given here.

Test system: CCRIS mutagenicity, Ames/micronucleus/aberration tests
Test: CCRIS mutagenicity studies
[1] = Test System: AMES SALMONELLA TYPHIMURIUM, Strain/Indicator: TA98, Metabolic Activation: NONE, Method: STANDARD PLATE
[2] = Test System: AMES SALMONELLA TYPHIMURIUM, Strain/Indicator: TA1535, Metabolic Activation: NONE, Method: STANDARD PLATE
[3] = Test System: AMES SALMONELLA TYPHIMURIUM, Strain/Indicator: TA98, Metabolic Activation: NONE, Method: PREINCUBATION
[4] = Test System: AMES SALMONELLA TYPHIMURIUM, Strain/Indicator: TA100, Metabolic Activation: NONE, Method: PREINCUBATION

Cn1c([N+](=O)[O-])cnc1-c1nnc(N)s1
mutagenic call (End Point: IN VITRO CHROMOSOMAL ABERRATIONS, Test System: HUMAN PERIPHERAL LYMPHOCYTES, Species: HUMAN, Strain/Sex: MALE, FEMALE, Metabolic Activation: NONE): active; positive (structural changes)
mutagenic call (End Point: IN VITRO CHROMOSOMAL ABERRATIONS, Test System: HUMAN PERIPHERAL LYMPHOCYTES, Species: HUMAN, Strain/Sex: MALE, FEMALE, Metabolic Activation: RAT, LIVER, S-9, AROCLOR 1254 (5%)): active; positive (structural changes)
mutagenic call (End Point: IN VITRO CHROMOSOMAL ABERRATIONS, Test System: HUMAN PERIPHERAL LYMPHOCYTES, Species: HUMAN, Strain/Sex: MALE, FEMALE, Metabolic Activation: RAT, LIVER, S-9, AROCLOR 1254 (10%)): active; positive (structural changes)
mutagenic call (End Point: IN VITRO MICRONUCLEUS, Test System: L5178Y MOUSE LYMPHOMA (TK+/-), Metabolic Activation: NONE): active; positive (increase in micronucleated cells)
mutagenic call (End Point: IN VITRO MICRONUCLEUS, Test System: L5178Y MOUSE LYMPHOMA (TK+/-), Metabolic Activation: RAT, LIVER, S-9, AROCLOR 1254): active; positive (increase in micronucleated cells)
mutagenic call (End Point: IN VIVO MICRONUCLEUS, Test System: BONE MARROW POLYCHROMATIC ERYTHROCYTES, Species: RAT, Strain/Sex: SPRAGUE-DAWLEY/MALE, FEMALE): active; positive
mutagenic call (End Point: IN VIVO MICRONUCLEUS, Test System: BONE MARROW POLYCHROMATIC ERYTHROCYTES, Species: RAT, Strain/Sex: SPRAGUE-DAWLEY/MALE, FEMALE, Route: ORAL): active; positive
mutagenic call (Test System: AMES SALMONELLA TYPHIMURIUM, Strain/Indicator: TA98 (DNP-6), Metabolic Activation: NONE, Method: DESICCATOR): active; positive
mutagenic call (Test System: AMES SALMONELLA TYPHIMURIUM, Strain/Indicator: TA98 (DNP-6), Metabolic Activation: NONE, Method: STANDARD PLATE): active; positive
mutagenic call (Test System: AMES SALMONELLA TYPHIMURIUM, Strain/Indicator: TA98 (DNP-6), Metabolic Activation: RAT LIVER S-9, AROCLOR 1254, 10% (W/V), Method: DESICCATOR): active; positive
mutagenic call (Test System: AMES SALMONELLA TYPHIMURIUM, Strain/Indicator: TA98 (DNP-6), Metabolic Activation: RAT LIVER S-9, AROCLOR 1254, 10% (W/V), Method: STANDARD PLATE): active; positive
mutagenic call (Test System: AMES SALMONELLA TYPHIMURIUM, Strain/Indicator: TA98 (NR), Metabolic Activation: NONE, Method: DESICCATOR): inactive; negative
mutagenic call (Test System: AMES SALMONELLA TYPHIMURIUM, Strain/Indicator: TA98 (NR), Metabolic Activation: NONE, Method: STANDARD PLATE): inactive; negative
mutagenic call (Test System: AMES SALMONELLA TYPHIMURIUM, Strain/Indicator: TA98 (NR), Metabolic Activation: RAT LIVER S-9, AROCLOR 1254, 10% (W/V), Method: DESICCATOR): inactive; negative
mutagenic call (Test System: AMES SALMONELLA TYPHIMURIUM, Strain/Indicator: TA98 (NR), Metabolic Activation: RAT LIVER S-9, AROCLOR 1254, 10% (W/V), Method: STANDARD PLATE): inactive; negative
mutagenic call (Test System: AMES SALMONELLA TYPHIMURIUM, Strain/Indicator: TA98, Metabolic Activation: NONE, Method: DESICCATOR): active; positive
mutagenic call [1]: active; positive
mutagenic call (Test System: AMES SALMONELLA TYPHIMURIUM, Strain/Indicator: TA98, Metabolic Activation: RAT LIVER S-9, AROCLOR 1254, 10% (W/V), Method: DESICCATOR): active; positive
mutagenic call (Test System: AMES SALMONELLA TYPHIMURIUM, Strain/Indicator: TA98, Metabolic Activation: RAT LIVER S-9, AROCLOR 1254, 10% (W/V), Method: STANDARD PLATE): active; positive
mutagenic call (Test System: AMES SALMONELLA TYPHIMURIUM, Strain/Indicator: TA98, Metabolic Activation: RAT, LIVER, S-9, AROCLOR 1254, Method: STANDARD PLATE): active; positive
mutagenic call (Test System: AMES SALMONELLA TYPHIMURIUM, Strain/Indicator: TA102, Metabolic Activation: NONE, Method: STANDARD PLATE): active; positive
mutagenic call (Test System: AMES SALMONELLA TYPHIMURIUM, Strain/Indicator: TA102, Metabolic Activation: RAT, LIVER, S-9, AROCLOR 1254, Method: STANDARD PLATE): active; positive

FC(F)(F)C(F)(F)C(Cl)Cl
mutagenic call [1]: inactive; negative
mutagenic call (Test System: AMES SALMONELLA TYPHIMURIUM, Strain/Indicator: TA98, Metabolic Activation: RAT LIVER S-9, PHENOBARBITAL, 5,6-BENZOFLAVONE, Method: STANDARD PLATE): inactive; negative
mutagenic call (Test System: AMES SALMONELLA TYPHIMURIUM, Strain/Indicator: TA100, Metabolic Activation: NONE, Method: STANDARD PLATE): inactive; negative
mutagenic call (Test System: AMES SALMONELLA TYPHIMURIUM, Strain/Indicator: TA100, Metabolic Activation: RAT LIVER S-9, PHENOBARBITAL, 5,6-BENZOFLAVONE, Method: STANDARD PLATE): inactive; negative
mutagenic call [2]: inactive; negative
mutagenic call (Test System: AMES SALMONELLA TYPHIMURIUM, Strain/Indicator: TA1535, Metabolic Activation: RAT LIVER S-9, PHENOBARBITAL, 5,6-BENZOFLAVONE, Method: STANDARD PLATE): inactive; negative
mutagenic call (Test System: AMES SALMONELLA TYPHIMURIUM, Strain/Indicator: TA1537, Metabolic Activation: NONE, Method: STANDARD PLATE): inactive; negative
mutagenic call (Test System: AMES SALMONELLA TYPHIMURIUM, Strain/Indicator: TA1537, Metabolic Activation: RAT LIVER S-9, PHENOBARBITAL, 5,6-BENZOFLAVONE, Method: STANDARD PLATE): inactive; negative
mutagenic call (Test System: ESCHERICHIA COLI, Strain/Indicator: WP2 UVR A, Metabolic Activation: NONE, Method: STANDARD PLATE): inactive; negative
mutagenic call (Test System: ESCHERICHIA COLI, Strain/Indicator: WP2 UVR A, Metabolic Activation: RAT LIVER S-9, PHENOBARBITAL, 5,6-BENZOFLAVONE, Method: STANDARD PLATE): inactive; negative
mutagenic call (Test System: UDS RAT HEPATOCYTES IN VIVO, Strain/Indicator: THYMIDINE INCORPORATION, Metabolic Activation: NONE, Method: INHALATION (6HR, NOSE-ONLY, 2-OR 16-HR HARVEST)/AUTORADIOGRAPHY): inactive; negative

C(=C\c1ccccc1)/c1ccccc1
mutagenic call (Test System: AMES SALMONELLA TYPHIMURIUM, Strain/Indicator: TA98, Metabolic Activation: HAMSTER, LIVER, S-9, AROCLOR 1254, Method: PREINCUBATION): inactive; negative
mutagenic call [3]: inactive; negative
mutagenic call (Test System: AMES SALMONELLA TYPHIMURIUM, Strain/Indicator: TA98, Metabolic Activation: RAT, LIVER, S-9, AROCLOR 1254, Method: PREINCUBATION): inactive; negative
mutagenic call (Test System: AMES SALMONELLA TYPHIMURIUM, Strain/Indicator: TA100, Metabolic Activation: HAMSTER, LIVER, S-9, AROCLOR 1254, Method: PREINCUBATION): inactive; negative
mutagenic call [4]: inactive; negative
mutagenic call (Test System: AMES SALMONELLA TYPHIMURIUM, Strain/Indicator: TA100, Metabolic Activation: RAT, LIVER, S-9, AROCLOR 1254, Method: PREINCUBATION): inactive; negative
mutagenic call (Test System: AMES SALMONELLA TYPHIMURIUM, Strain/Indicator: TA1535, Metabolic Activation: HAMSTER, LIVER, S-9, AROCLOR 1254, Method: PREINCUBATION): inactive; negative
mutagenic call (Test System: AMES SALMONELLA TYPHIMURIUM, Strain/Indicator: TA1535, Metabolic Activation: NONE, Method: PREINCUBATION): inactive; negative
mutagenic call (Test System: AMES SALMONELLA TYPHIMURIUM, Strain/Indicator: TA1535, Metabolic Activation: RAT, LIVER, S-9, AROCLOR 1254, Method: PREINCUBATION): inactive; negative
mutagenic call (Test System: AMES SALMONELLA TYPHIMURIUM, Strain/Indicator: TA1537, Metabolic Activation: HAMSTER, LIVER, S-9, AROCLOR 1254, Method: PREINCUBATION): inactive; negative
mutagenic call (Test System: AMES SALMONELLA TYPHIMURIUM, Strain/Indicator: TA1537, Metabolic Activation: NONE, Method: PREINCUBATION): inactive; negative
mutagenic call (Test System: AMES SALMONELLA TYPHIMURIUM, Strain/Indicator: TA1537, Metabolic Activation: RAT, LIVER, S-9, AROCLOR 1254, Method: PREINCUBATION): inactive; negative

CS(=O)CCCCN=C=S (configuration not stated)
mutagenic call (End Point: IN VITRO MICRONUCLEUS, Test System: HUMAN T-LYMPHOCYTES, Metabolic Activation: NONE): inactive; negative

ClCOCCl
mutagenic call (Test System: AMES SALMONELLA TYPHIMURIUM, Strain/Indicator: G46, Metabolic Activation: NONE, Method: STANDARD PLATE): active; positive

CCNC(=O)N(C=O)CCN(C)C
mutagenic call [2]: active; positive

CC1(C)CC(N)CC(C)(CN)C1 (configuration not stated)
mutagenic call [3]: inactive; negative
mutagenic call (Test System: AMES SALMONELLA TYPHIMURIUM, Strain/Indicator: TA98, Metabolic Activation: RAT, LIVER, S-9, PCB, Method: PREINCUBATION): inactive; negative
mutagenic call [4]: inactive; negative
mutagenic call (Test System: AMES SALMONELLA TYPHIMURIUM, Strain/Indicator: TA100, Metabolic Activation: RAT, LIVER, S-9, PCB, Method: PREINCUBATION): inactive; negative
